Patent publication US20230116039A1, “DISINFECTION SOLUTION WITH TWO-PART FORMULATION” (ASP GLOBAL MANUFACTURING GMBH, priority 2020, published 2023)

Columns and labels:
[1] = Stability of ready-to-use PAA solution, pH adjusted with disodium phosphate, with or without chelant, heated at 56° C. for one hour; type: physicochemical; settings: initial PAA 0.35%, water hardness 200 ppm, pH 5 with disodium phosphate
Excerpt: (§1) In these studies, peracetic acid (PAA) was combined with hard water having a water hardness of 200 parts per million (“ppm”) such that the resulting solution included a 0.35% concentration of PAA. The pH of the solution was adjusted to 5 using a pH modifier. In a first batch of the solution, the pH modifier used was ethanolamine. In a second batch of the solution, the pH modifier used was disodium phosphate. Test specimens from these two batches were created by individually adding chelants thereto. The chelants used in these studies are those used for removing ions (e.g. Calcium and Magnesium) from hard water, and included tetrasodium EDTA, TRILON® M (methylglycinediacetic acid trisodium salt (MGDA-Na3)), TRILON® C (diethylenetriaminepentaacetic acid pentasodium salt (DTPA-Na5)), sodium citrate, and DISSOLVINE® GL (glutamic acid diacetic acid tetrasodium salt (GLDA-Na4)). Test specimens from these two batches were also created that lacked any such chelants. In some instances, test specimens were created for different concentrations of certain of these chelants. Table 1 reflects test specimens made from the first batch of the solution. Table 2 reflects test specimens made from the second batch of the solution. The tables also reflect the concentration of each chelant in each specimen as a percentage. Each specimen was heated at 56° C. for one hour. At the end of the hour, the PAA concentration was determined. The final concentration of PAA is provided in Table 1 and Table 2 alongside the change in the PAA concentration as determined at the end of the hour (“Δ PAA %”).

[2] = Stability of ready-to-use PAA solution, pH adjusted with ethanolamine, with or without chelant, heated at 56° C. for one hour; type: physicochemical; settings: initial PAA 0.35%, water hardness 200 ppm, pH 5 with ethanolamine
Excerpt: as §1

Row | Structure (SMILES) | Final PAA Concentration (%) ([1]; chelant concentration 0.2%) | Δ PAA % ([1]; chelant concentration 0.2%) [%] | Final PAA Concentration (%) ([1]; chelant concentration 0.6%) | Δ PAA % ([1]; chelant concentration 0.6%) [%] | Final PAA Concentration (%) ([2]; chelant concentration 0.2%) | Δ PAA % ([2]; chelant concentration 0.2%) [%] | Final PAA Concentration (%) ([2]; chelant concentration 0.6%) | Δ PAA % ([2]; chelant concentration 0.6%) [%] | Final PAA Concentration (%) ([1]; chelant concentration 0.1%) | Δ PAA % ([1]; chelant concentration 0.1%) [%] | Final PAA Concentration (%) ([1]; chelant concentration 0.4%) | Δ PAA % ([1]; chelant concentration 0.4%) [%] | Final PAA Concentration (%) ([2]; chelant concentration 0.1%) | Δ PAA % ([2]; chelant concentration 0.1%) [%] | Final PAA Concentration (%) ([2]; chelant concentration 0.4%) | Δ PAA % ([2]; chelant concentration 0.4%) [%]
1 | O=C([O-])CC[C@@H](C(=O)[O-])N(CC(=O)[O-])CC(=O)[O-].[Na+].[Na+].[Na+].[Na+] [Dissolvine (liquid), glutamic acid diacetic acid tetrasodium salt] | 0.29 | −17 | 0.25 | −29 | 0.23 | −34 | 0.17 | −51 | – | – | – | – | – | – | – | –
2 | O=C([O-])CN(CCN(CC(=O)[O-])CC(=O)[O-])CC(=O)[O-].[Na+].[Na+].[Na+].[Na+] [Na4EDTA, tetrasodium EDTA, reference compound] | – | – | – | – | – | – | – | – | 0.28 | −20 | 0.18 | −49 | 0.21 | −40 | 0.14 | −60
3 | O=C([O-])CN(CCN(CC(=O)[O-])CC(=O)[O-])CCN(CC(=O)[O-])CC(=O)[O-].[Na+].[Na+].[Na+].[Na+].[Na+] [Trilon C (liquid), diethylenetriaminepentaacetic acid pentasodium salt] | 0.26 | −26 | – | – | 0.22 | −37 | – | – | – | – | – | – | – | – | – | –
4 | CC(C(=O)[O-])N(CC(=O)[O-])CC(=O)[O-].[Na+].[Na+].[Na+] (stereo not drawn) [Trilon M (liquid), methylglycinediacetic acid trisodium salt] | 0.3 | −14 | 0.26 | −26 | – | – | 0.19 | −46 | – | – | – | – | – | – | – | –
5 | O=C([O-])CC(O)(CC(=O)[O-])C(=O)[O-].[Na+].[Na+].[Na+] [sodium citrate, reference compound] | – | – | – | – | – | – | – | – | – | – | 0.26 | −26 | – | – | 0.23 | −34
